ChEMBL document CHEMBL1141279, “Benzylphenethylamine alkaloids from Hosta plantaginea with inhibitory activity against tobacco mosaic virus and acetylcholinesterase” (J Nat Prod, 2007)
Calls of active or inactive are those of the source. The rule behind the calls is not given here.

Assays:
Acetylcholinesterase = Acetylcholinesterase (Homo sapiens, UniProt P22303)
Description: Inhibition of AChE by Ellman method

Tobacco mosaic virus [1] = assay: Antiviral activity against Tobacco mosaic virus U1 at 1 ug/mL after 72 hrs by half leaf method; format: functional; conditions: U1, 72 h
Tobacco mosaic virus [2] = assay: Antiviral activity against Tobacco mosaic virus U1 after 72 hrs by half leaf method; format: functional, organism-based; conditions: for IC50: U1, 72 h

Chain of Acetylcholinesterase (P22303 whole entry): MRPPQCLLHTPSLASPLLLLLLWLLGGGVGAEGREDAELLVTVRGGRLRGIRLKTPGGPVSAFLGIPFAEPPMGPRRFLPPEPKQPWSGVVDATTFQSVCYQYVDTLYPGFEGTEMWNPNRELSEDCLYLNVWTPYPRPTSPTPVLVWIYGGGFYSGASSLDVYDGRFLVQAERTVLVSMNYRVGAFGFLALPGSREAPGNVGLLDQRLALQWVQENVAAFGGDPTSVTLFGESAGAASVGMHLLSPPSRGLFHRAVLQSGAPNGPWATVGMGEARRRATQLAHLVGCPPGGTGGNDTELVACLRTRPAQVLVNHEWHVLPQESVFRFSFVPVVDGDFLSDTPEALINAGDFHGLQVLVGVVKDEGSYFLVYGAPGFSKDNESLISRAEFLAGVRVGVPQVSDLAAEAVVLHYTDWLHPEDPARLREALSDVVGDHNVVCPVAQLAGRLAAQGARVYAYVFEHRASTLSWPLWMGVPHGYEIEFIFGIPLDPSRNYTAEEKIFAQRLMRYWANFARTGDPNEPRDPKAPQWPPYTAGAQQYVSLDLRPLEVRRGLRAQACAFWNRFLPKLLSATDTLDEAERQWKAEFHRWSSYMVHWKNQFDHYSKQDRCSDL

Row | Structure (SMILES) | IC50 (Acetylcholinesterase) [µM] | Activity (Tobacco mosaic virus [2]) | also measured
1 | CC(=O)O[C@H]1[C@H]2c3cc4c(cc3CN3CCC(=C[C@@H]1O)[C@H]23)OCO4 | 0.96 |  | 
2 | COc1ccc2c3c(c4cc(OC)c(OC)cc4c2c1)C[C@H]1CCCN1C3 [(-)-ANTOFINE] |  |  | inhibition at 1 µg/mL (Tobacco mosaic virus [1]): 65%
3 | CO[C@@H]1C=C[C@@]23c4cc5c(cc4CN(C[C@@H]2O)[C@H]3C1)OCO5 [(+)-HAEMANTHAMINE] | 452 |  | 
4 | [O-]c1cc2c3c(c1)c1cc4c(cc1c[n+]3CC2)OCO4 [UNGEREMINE] | 3.85 |  | 
5 | O=C1N[C@H]2[C@H](O)[C@H](O)[C@@H](O)C[C@@H]2c2cc3c(cc21)OCO3 |  |  | IC50 (Tobacco mosaic virus [2]): 1.8 µM
6 | O[C@@H]1C=C[C@@]23c4cc5c(cc4CN(C[C@@H]2O)[C@H]3C1)OCO5 |  | inactive | 
7 | COc1cc2c(cc1OC)[C@]1(OC2=O)[C@H](O)[C@@H](O)C=C2CCN(C)[C@H]21 | 2.32 | inactive | 
8 | Oc1ccc2c3c1O[C@H]1C[C@@H](O)C=C[C@@]31CCNC2 [NORSANGUININE] | 1.43 | inactive | 
9 | COc1cc2c(c(OC)c1OC)C(=O)O[C@@H]1CC=C3CCN(C)[C@H]3[C@H]21 |  | inactive | 
10 | COc1cc2c(cc1OC)-c1cccc3c1N(CC3)C2 [ASSOANINE] | 3.87 |  | 
11 | NC(=O)c1ncn([C@@H]2O[C@H](CO)[C@@H](O)[C@H]2O)n1 [RIBAVIRIN] |  |  | IC50 (Tobacco mosaic virus [2]): 2990 µM
12 | CO[C@@H]1C=C[C@@]23c4cc5c(cc4[C@H](O)N(C[C@@H]2O)[C@H]3C1)OCO5 |  | inactive | 
13 | O[C@H]1[C@H]2c3cc4c(cc3CN3CCC(=C[C@@H]1O)[C@H]23)OCO4 [LYCORINE] | 155 | inactive | 
14 | COc1cc2c(c(OC)c1OC)C(=O)O[C@]21[C@H](O)[C@@H](O)C=C2CCN(C)[C@H]21 | 113 |  | 
